Earlier results in patent US20200172966A1 (YAMAGUCHI UNIVERSITY, priority 2015, published 2020).

Conditions: patients identified as non-high-risk based on polymorphisms of the UGT1A gene; cited from earlier work

For `CCc1c2c(nc3ccc(OC(=O)N4CCC(N5CCCCC5)CC4)cc13)-c1cc3c(c(=O)n1C2)COC(=O)[C@]3(O)CC` [irinotecan, 1,4′-Bipiperidine-1′-carboxylic acid (S)-4,11-diethyl-3,4,12,14-tetrahydro-4-hydroxy-3,14-dioxo-1H-pyrano[3′,4′:6,7]indolizino[1,2-b]quinolin-9-yl ester], the “patients with a side effect” value is listed as 43%.
